Here are results for one substance from patent publication US20230181520A1, “USE OF HYDROPEROXY ALCOHOLS AND THE DERIVATIVES THEREOF AS ANTIMICROBIAL AGENTS” (DEMETA, priority 2019, published 2023).

What all share (format): cell-based
One assay concerns Pseudomonas aeruginosa. The assay can be described thus: Surface antibacterial test, CFU count on support. The conditions noted are these: P. aeruginosa; 24 h of contact at ambient temperature; sample solution 10 000 ppm in DMSO dried on inert support. As to the method: The tests were carried out at the surface: a solution of sample at 10 000 ppm in DMSO for a sample of HPA at 72% purity (i.e. […] of active material) was dried on an inert support. Once the solution had dried, a volume of inoculum of each bacterial strain was placed on the support in contact with the sample for 0 and 24 h at ambient temperature. In order to verify the nontoxicity of the DMSO, a pure solution of DMSO was dried on the support under the same conditions as the samples. A nontreated support (noted support control in FIG. 1) was also inoculated, in order to verify the stability of the strains under the conditions of the test. In order to quantify the contamination at each measurement time, a count was performed by spreading out, at the surface or in the mass, of decimal dilutions of the sample on TSA agar or Columbia agar (for C. acnes). The results were expressed in “colony-forming units” (CFUs) on the support. The Bacterial Strains Targeted are: Gram−: Pseudomonas aeruginosa

In another assay the test system is Enterococcus hirae. The experiment in a line: Surface antibacterial test, CFU count on support. The conditions noted are these: E. hirae; 24 h of contact at ambient temperature; sample solution 10 000 ppm in DMSO dried on inert support. The method, then:
(§1) The tests were carried out at the surface: a solution of sample at 10 000 ppm in DMSO for a sample of HPA at 72% purity (i.e. […] of active material) was dried on an inert support. Once the solution had dried, a volume of inoculum of each bacterial strain was placed on the support in contact with the sample for 0 and 24 h at ambient temperature. In order to verify the nontoxicity of the DMSO, a pure solution of DMSO was dried on the support under the same conditions as the samples. A nontreated support (noted support control in FIG. 1) was also inoculated, in order to verify the stability of the strains under the conditions of the test. In order to quantify the contamination at each measurement time, a count was performed by spreading out, at the surface or in the mass, of decimal dilutions of the sample on TSA agar or Columbia agar (for C. acnes). The results were expressed in “colony-forming units” (CFUs) on the support. The Bacterial Strains Targeted are: Gram+: Cutibacterium acnes, Enterococcus hirae, Staphylococcus aureus

A further assay has as its system Staphylococcus aureus. The experiment in a line: Surface antibacterial test, CFU count on support. The conditions noted are these: S. aureus; 24 h of contact at ambient temperature; sample solution 10 000 ppm in DMSO dried on inert support. As to the method:
as §1

For the next assay, the system named is Cutibacterium acnes. The experiment in a line: Surface antibacterial test, CFU count on support (Columbia agar). The conditions noted are these: C. acnes; 24 h of contact at ambient temperature; sample solution 10 000 ppm in DMSO dried on inert support. As to the method:
as §1

For “9(10)-hydroperoxy-10(9)-hydroxystearic acid [hydroperoxy alcohol of oleic acid]”, the “logarithmic reduction in the population relative to t=0” value in the assay on Pseudomonas aeruginosa is on record as “approximately 4 log 10”. Besides, the “logarithmic reduction of the population relative to t=0” value with Enterococcus hirae was “approximately 5 log 10”; with Staphylococcus aureus, “approximately 5 log 10”; with Cutibacterium acnes, “approximately 6 log 10”.
